Results taken from patent US5656743A, “Oligonucleotide modulation of cell growth” (priority 1994, dated 1997).
“Also recorded” adds a separate entry of the source.

Assays:
[1] = test system: HeLa S3 cells (human epithelioid cervix carcinoma); experiment: Cell growth of HeLa cells by counting attached cells after oligonucleotide treatment; assay type: cell-based; details: for cell growth inhibitory effect: HeLa cells (FIG. 1A), 0.1-0.5 μM oligonucleotide + 10 μg/ml DOTMA, ±SD; for cell growth inhibitory effect / inhibition of cell growth (in words): serum-free, 4 h; for log HeLa cell kill: 2 days after treatment, oligonucleotide complexed with DOTMA 4 h; for inhibition of cell growth (in words): oligonucleotide + 10 μg/ml DOTMA
[2] = test system: human tumor cells (HeLa, LOX, SN12A1); assay type: cell-based; details: 0.1 and 1 μM oligonucleotide + 10 μg/ml DOTMA 4 h; for inhibition of the tumors (in words): FIG. 2 panels A-C
[3] = test system: HeLa and LOX human tumor cell lines; experiment: Nuclear aberrations, mitoses and cell growth in HeLa and LOX cells by light and fluorescence microscopy; assay type: cell-based; details: 0.2 or 0.4 μM + DOTMA 4 h
Protocol: HeLa and LOX human tumor cell lines were analyzed by light and fluorescence microscopy after 4 hours treatment with 0.2 or 0.4 μM antisense (SEQ ID NO: 9) or sense (SEQ ID NO: 16) oligonucleotide with DOTMA. […] Nucleolar unraveling and fragmentation and chromatin alterations were observed. In some LOX cells chromatin was condensed as in prophase arrest. In HeLa cells, chromatin was condensed and compacted. Decreased mitoses correlated with decreased ^3 H-thymidine incorporation. Cell growth decreased 70-80%.

[4] = test system: HRCC-SN12A1 cells (human renal cell carcinoma); experiment: Cell growth of HRCC-SN12A1 cells by counting attached cells after oligonucleotide treatment; assay type: cell-based
Protocol: HeLa S3 (ATCC CCL 2.2, human epithelioid cervix carcinoma) cells were subcultured in Dulbecco's modified Eagle Medium (D-MEM) (GIBCO BRL), supplemented with 10% fetal bovine serum (FBS) (GIBCO BRL) and 1% penicillin-streptomycin liquid (100 000 IU/ml penicillin G sodium, 10 mg/ml streptomycin sulfate in 0.85% saline) (GIBCO BRL). LOX (IMVI, human amelanotic melanoma) cells (provided by Dr. D. J. Dykes, Southern Research Institute, Birmingham, Ala.) were subcultured in RPMI 1640 medium (RPMI) (GIBCO BRL) supplemented with 10% FBS and 1% penicillin-streptomycin liquid. […] All cells were negative for mycoplasma infection as determined by a DNA stain (McGarrity, Methods in Enzymology: Cell Culture, Vol 63, p23 (Academic Press, San Diego; 1979); Freshney, Culture of Animal Cells: A Manual of Basic Techniques (Wiley-Liss, NY; 1987). […]
The effect of oligonucleotides on cell growth was determined by counting the attached cells in the 6-well plates through a phase contrast inverted microscope (Nikon Diaphot, 10×objective, 10×ocular, 4×magnification extender, total magnification: 400×). The attached cells on 10 randomly chosen fields were counted (10-200 cells/field) and the total cell number was calculated by multiplying the mean cell number by the correction factor (f6-well =6028, f24-well =1258, f10 cm dish =35,670). […]

[5] = Cellular uptake, efflux and localization of 32P-labeled oligonucleotide; assay type: in vitro ADME
Protocol: (§1) Phosphorothioate oligonucleotide SEQ ID NO: 9 was labeled with [γ^32 P]ATP by T4 polynucleotide kinass to analyze cellular uptake, efflux and stability in the presence or absence of DOTMA. […] 5-15 fold more of oligonucleotide SEQ ID NO: 9 was associated with the cells in the presence of DOTMA than in its absence. 60% of the oligonucleotide localized to the nuclei after 4 hours treatment in the presence of DOTMA, approximately 50% remained in the cells 20 hours post-treatment. The stability of phosphorothioate oligonucleotides was much greater than the phosphodiester oligonucleotides. Only 40% degradation of the phosphorothioate oligonucleotide was found after 24 hours in 10% serum-containing medium. More than 50% of the phosphodiester oligonucleotide was degraded within 1 hour. DOTMA enhanced the activity of antisense oligonucleotide phosphorothioate.

[6] = assay type: in vitro ADME; details: after 24 hours in 10% serum-containing medium
Protocol: as §1

[7] = test system: LOX cells (human amelanotic melanoma); experiment: Cell growth of LOX cells by counting attached cells after oligonucleotide treatment; assay type: cell-based
Protocol: HeLa S3 (ATCC CCL 2.2, human epithelioid cervix carcinoma) cells were subcultured in Dulbecco's modified Eagle Medium (D-MEM) (GIBCO BRL), supplemented with 10% fetal bovine serum (FBS) (GIBCO BRL) and 1% penicillin-streptomycin liquid (100 000 IU/ml penicillin G sodium, 10 mg/ml streptomycin sulfate in 0.85% saline) (GIBCO BRL). LOX (IMVI, human amelanotic melanoma) cells (provided by Dr. D. J. Dykes, Southern Research Institute, Birmingham, Ala.) were subcultured in RPMI 1640 medium (RPMI) (GIBCO BRL) supplemented with 10% FBS and 1% penicillin-streptomycin liquid. HRCC-SN12A1 (human renal cell carcinoma) cells (established from the ascitic cells of intrarenally transplanted HRCC-bearing nude mouse and provided by Dr. I. J. Fidler, M.D., Anderson Cancer Center, Houston, Tex.)(Naito, etal., 1986) were subcultured in Eagle minimum essential medium (MEM) (GIBCO BRL), supplemented with 10% FBS, vitamins, L-glutamine, sodium pyruvate, non-essential amino acids and 1% penicillin-streptomycin liquid. All cells were negative for mycoplasma infection as determined by a DNA stain (McGarrity, Methods in Enzymology: Cell Culture, Vol 63, p23 (Academic Press, San Diego; 1979); Freshney, Culture of Animal Cells: A Manual of Basic Techniques (Wiley-Liss, NY; 1987).
Twenty-four hours after plating (1×10^5 cells into 6-well cell culture dishes), the cells growing in monolayer were gently washed once with 5 ml serum-free D-MEM, RPMI and MEM medium for HeLa S3, LOX and HRCC-SN12A1 cells, respectively. Freshly prepared serum-free mediumcontaining 10 μg/ml cationic lipid (DOTMA); Chiang, et al., J. Biol. Chem., 266:18162 (1991); Bennett, et al., J. Liposome Research, in press (1992); were mixed with oligonucleotide and preincubated at 37° C. in a humidified incubator for 15 minutes to allow formation of an oligonucleotide-cationic lipid complex. The oligonucleotide concentrations were between 0.001 and 10 μM, but for the majority of the experiments for HeLa S3 cells 0.1 μM, for LOX cells 0.03-0.05-0.1 μM, and for HRCC cells 0.1 μM concentrations were used. […]
The effect of oligonucleotides on cell growth was determined by counting the attached cells in the 6-well plates through a phase contrast inverted microscope (Nikon Diaphot, 10×objective, 10×ocular, 4×magnification extender, total magnification: 400×). The attached cells on 10 randomly chosen fields were counted (10-200 cells/field) and the total cell number was calculated by multiplying the mean cell number by the correction factor (f6-well =6028, f24-well =1258, f10 cm dish =35,670). […] The dead floating cells (viability was determined by […]) were not counted. The cell number in each well was determined before treatment, immediately after treatment, and daily after treatment for 5-7 days. […]

human LOX ascites tumor = experiment: Tumor growth inhibition, i.p. LOX ascites tumor in nude mice; assay type: in vivo; details: complexed with DOTMA
Protocol: Intraperitoneally (i.p.) transplanted, exponentially growing LOX ascites tumor cells were harvested from nude mice, washed and resuspended in serum-free RPMI medium. A total of 2×10^6 viable cells (determined by trypan blue exclusion) in 0.5 ml RPMI medium were injected i.p. into the homozygous mutant, HSd: Athymic Nude-nu male mice (Sambrook, et al., 1989). Treatment was started 1 day after the i.p. injection of tumor cells and the oligonucleotide in the presence of DOTMA was given i.p. on days 1, 3 and 5. Tumor growth was followed by daily inspection of the animals. The experiments were terminated when the ascite tumors were visible both in controls and treated animals, generally by day 14. All animal experimentation followed the guidelines of the Baylor College of Medicine and New York Academy of Sciences.
The tumor growth inhibitory effect of antisense oligonucleotide SEQ ID NO: 9 was studied on i.p. injected LOX tumor cells. […] No tumor growth inhibition or other toxic effects occurred after treatment with PBS alone or DOTMA in PBS (1-10 mg/kg bodyweight).

[8] = two days after treatment, DOTMA 4 h serum-free
[9] = 32P-labeled phosphorothioate oligonucleotide

CACCCGCCTT GGCCTCCCAC (antisense CACCCGCCTTGGCCTCCCAC; chemistry not given here) [SEQ ID NO: 9, p120 antisense oligonucleotide, 3' UTR]
cell growth inhibitory effect [1]: 87.6±11.3% | effect of repeated treatment ([1]; HeLa cells, 0.1 μM + DOTMA, two 4 h treatments on days 1 and 3): additive effects | log HeLa cell kill ([1]; HeLa cells): 0.7 log | inhibition of cell growth in complete medium ([1]; HeLa cells, DOTMA-mediated treatment in complete (10% FBS) medium, compared to serum-free (FIG. 1C)): very slight | inhibition of cell growth (in words) ([1]; HeLa cells): most consistent and greatest inhibition of cell growth; also recorded: inhibitory activity | IC50 ([1]; HeLa cells, oligonucleotide + DOTMA 4 h serum-free, two days after treatment (FIG. 4), read-out: IC50, inhibition of cell growth): 20 nM | inhibition of the tumors (in words) [2]: marked inhibition | log-cell kill ([2]; especially 3-4 days after treatment): 0.5 to 1.5 log | decrease of cell growth [3]: 70-80% | decrease of mitotic cells ([3]; at 8 to 72 hours post-treatment): 70% | decrease of mitotic cells ([3]; at 4 hours): 50% | maximum cytocidal effect (log cell kill) ([4]; 4 days after treatment): 1.3 log | log cell kill [4, 8]: 0.7 log | oligonucleotide associated with the cells, presence versus absence of DOTMA [5, 9]: 5-15 fold | time of treatment to plateau of cellular uptake [5, 9]: 1 h | oligonucleotide remaining in the cells ([5]; 20 hours post-treatment): approximately 50% | oligonucleotide localized to the nuclei ([5]; after 4 hours treatment in the presence of DOTMA): 60% | degradation [6]: 40% | log cell kill, single treatment ([7]; 0.05 μM + DOTMA, one 4 h treatment day 1 after seeding): 1.4 log | effect of repeated treatment ([7]; 0.05 μM + DOTMA, two 4 h treatments on days 1 and 3): killed most LOX cells and no recovery was found on day 8 | IC50 ([7]; oligonucleotide + DOTMA 4 h serum-free, two days after treatment (FIG. 4), read-out: IC50, inhibition of cell growth): 10 nM | log cell kill [7, 8]: 1.2 log | inhibition of cell growth in vivo (human LOX ascites tumor; 0.65 mg/kg bodyweight i.p. days 1, 3, 5): 80% | inhibition of cell growth in vivo (human LOX ascites tumor; 6.5 mg/kg bodyweight i.p. days 1, 3, 5): 90% | IC50, tumor growth inhibition in vivo (human LOX ascites tumor; i.p. days 1, 3, 5): 0.26 mg/kg bodyweight

CACCCGCCTT GGCCTCCCAG (antisense CACCCGCCTTGGCCTCCCAG; chemistry not given here) [SEQ ID NO: 14, p120 antisense oligonucleotide, 3' UTR]
inhibition of cell growth (in words) ([1]; HeLa cells): inhibitory activity | inhibition of the tumors (in words) [2]: marked inhibition

CACGCCTCCC GACTCTGCCC (DNA CACGCCTCCCGACTCTGCCC; chemistry not given here) [SEQ ID NO: 15, reference compound]
log HeLa cell kill ([1]; HeLa cells): 0.2 log

GTGGGAGGCC AAGGCGGGTG (sense GTGGGAGGCCAAGGCGGGTG; chemistry not given here) [SEQ ID NO: 16, reference compound]
inhibition of cell growth (in words) ([1]; HeLa cells): No inhibitory effect

TCCCAGTCCC ACCTCCCATC (antisense TCCCAGTCCCACCTCCCATC; chemistry not given here) [SEQ ID NO: 6, p120 antisense oligonucleotide, 3' UTR]
cell growth inhibitory effect [1]: 70.7±24.8%
